Values quoted from earlier work in US20110293691A1, “MULTIMODAL ADHESION BARRIER” (priority 2010, published 2011).

Tested on: rat model
Conditions: oral or intraperitoneal, about one week prior to surgery and three weeks postoperatively

**Q.** With O=C(CC1NCCCC1O)Cn1cnc2cc(Br)c(Cl)cc2c1=O (stereo not shown) [Halofuginone, 7-bromo-6-chloro-3-[3-(3-hydroxy-2-piperidinyl)-2-oxopropyl]-4(3H)] as the compound, how does the “prevention of adhesions (in words)” value read?
**A.** The value was “prevent adhesions in a rat model in a dose dependent manner”.
